Reference: patent publication US10493254B2, “Permeant delivery system and methods for use thereof” (priority 2008, dated 2019)

Experiment: Exenatide delivery from liquid patch with permeability enhancer through microporated abdomen
Conditions: hairless rat abdomen microporated; patch with 20 OuL solution of exenatide (10.5 mg/mL) and agent (3% w/v); fresh solution every four hours

O=C([O-])CC(O)(CC(=O)[O-])C(=O)O.[Na+].[Na+] [disodium citrate]
exenatide levels over 24 hours: roughly steady levels
